This assay deals with T1, CHK1 (Homo sapiens, UniProt O14757).
T1 sequence (O14757 1-476): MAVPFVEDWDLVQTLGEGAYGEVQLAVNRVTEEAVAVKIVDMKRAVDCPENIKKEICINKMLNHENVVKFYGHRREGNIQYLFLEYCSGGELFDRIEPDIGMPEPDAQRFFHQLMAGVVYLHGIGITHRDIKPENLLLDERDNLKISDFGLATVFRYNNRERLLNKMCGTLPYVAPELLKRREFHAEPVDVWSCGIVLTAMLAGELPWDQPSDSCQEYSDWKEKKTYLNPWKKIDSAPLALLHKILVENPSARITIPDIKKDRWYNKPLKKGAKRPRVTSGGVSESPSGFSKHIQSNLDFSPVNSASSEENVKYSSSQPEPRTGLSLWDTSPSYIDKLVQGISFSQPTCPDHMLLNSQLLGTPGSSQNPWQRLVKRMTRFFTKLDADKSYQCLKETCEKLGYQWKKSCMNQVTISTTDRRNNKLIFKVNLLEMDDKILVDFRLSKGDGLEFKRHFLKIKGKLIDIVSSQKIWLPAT
Put plainly: CHK1 kinase function inhibition assay (DELFIA, phosphorylation of a CDC25C peptide). It is filed as biochemical. The note with it: CHK1 1 nM, ATP 30 μM, 30 minutes at room temperature. In outline: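 Phosphorylation of a CDC25C peptide detected by DELFIA with a phospho-specific antibody. Kinase reaction ran 30 min at room temperature, was stopped with EDTA buffer, then captured on neutravidin-coated plates for 1 h before time-resolved fluorescence read-out with enhancement solution.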

Experimental findings from patent US8367658B2, “Pyrazin-2-yl-pyridin-2-yl-amine and pyrazin-2-yl-pyrimidin-4-yl-amine compounds and their use” (Cancer Research Technology Limited, priority 2007, dated 2013) are described below.

Values joined by “and” are separate entries in the source; they are usually repeats but may differ in a detail not shown here. Identical values can stand only once. A value given as a limit tells only on which side of the number the result lay.

Compound `CS(=O)(=O)c1cccc(-c2cnc(Nc3cnc(C#N)cn3)cc2NCC2CCNCC2)c1` [Compound Y-132, 5-(5-(3-(Methylsulfonyl)phenyl)-4-(piperidin-4-ylmethylamino)pyridin-2-ylamino)pyrazine-2-carbonitrile] showed an IC50 of 100 to 1000 nM.

Regarding `COCCCOc1ccc(-c2cnc(Nc3cnc(C#N)cn3)cc2NCC2CCNCC2)cc1` [Compound Y-133, 5-(5-(4-(3-Methoxypropoxy)phenyl)-4-(piperidin-4-ylmethylamino)pyridin-2-ylamino)pyrazine-2-carbonitrile], the IC50 was in the range of 100 to 1000 nM.

On to `N#Cc1cnc(Nc2cc(NCC3CCNCC3)c(-c3ccc4c(c3)OCCO4)cn2)cn1` [Compound Y-134, 5-(5-(2,3-Dihydrobenzo[b][1,4]dioxin-6-yl)-4-(piperidin-4-ylmethylamino)pyridin-2-ylamino)pyrazine-2-carbonitrile], for which the IC50 lay within 100 to 1000 nM.

In turn, `COc1ccc(-c2cnc(Nc3cnc(C#N)cn3)cc2NCC2(F)CCNCC2)cc1` [Compound Y-136, 5-(4-((4-Fluoropiperidin-4-yl)methylamino)-5-(4-methoxyphenyl)pyridin-2-ylamino)pyrazine-2-carbonitrile] displayed an IC50 of no more than 100 nM.

As to `COc1ccc(-c2cnc(Nc3cnc(C#N)cn3)cc2NCCC2CNCCO2)cc1` (centres unmarked) [Compound Y-137, 5-(5-(4-methoxyphenyl)-4-(2-(morpholin-2-yl)ethylamino)pyridin-2-ylamino)pyrazine-2-carbonitrile], the half-inhibitory concentration (IC50) is no more than 100 nM.

As for `N#Cc1cnc(Nc2cc(NCCC3CNCCO3)c(-c3ccccc3)cn2)cn1` (centres unmarked) [Compound Y-138, 5-(4-(2-(Morpholin-2-yl)ethylamino)-5-phenylpyridin-2-ylamino)pyrazine-2-carbonitrile], the IC50 is no more than 100 nM.

Compound `COC/C=C/c1cnc(Nc2cnc(C#N)cn2)cc1NCC1CCNCC1` [Compound Y-139, (E)-5-(5-(3-Methoxyprop-1-enyl)-4-(piperidin-4-ylmethylamino)pyridin-2-ylamino)pyrazine-2-carbonitrile] came in with a half-maximal inhibitory concentration (IC50) of no more than 100 nM.

As for `COCCCc1cnc(Nc2cnc(C#N)cn2)cc1NCC1CCNCC1` [Compound Y-141, 5-(5-(3-methoxypropyl)-4-(piperidin-4-ylmethylamino)pyridin-2-ylamino)pyrazine-2-carbonitrile], the IC50 was no more than 100 nM.

The compound `N#Cc1cnc(Nc2cc(NCC3CCNCC3)c(CCCCO)cn2)cn1` [Compound Y-142, 5-(5-(4-hydroxybutyl)-4-(piperidin-4-ylmethylamino)pyridin-2-ylamino)pyrazine-2-carbonitrile] showed a half-maximal inhibitory concentration (IC50) of 100 to 1000 nM.

On to `N#Cc1cnc(Nc2cc(NCC3CCNCC3)c(C#CCO)cn2)cn1` [Compound Y-145, 5-(5-(3-Hydroxyprop-1-ynyl)-4-(piperidin-4-ylmethylamino)pyridin-2-ylamino)pyrazine-2-carbonitrile], for which the IC50 was no more than 100 nM.

`COCc1ccc(-c2cnc(Nc3cnc(C#N)cn3)cc2NC[C@@H]2CNCCO2)cc1` [Compound Y-148, (S)-5-(5-(4-(Methoxymethyl)phenyl)-4-(morpholin-2-ylmethylamino)pyridin-2-ylamino)pyrazine-2-carbonitrile]: the half-maximal inhibitory concentration (IC50) is no more than 100 nM.

Consider `COCCOc1ccc(-c2cnc(Nc3cnc(C#N)cn3)cc2NC[C@@H]2CNCCO2)cc1` [Compound Y-149, (S)-5-(5-(4-(2-Methoxyethoxy)phenyl)-4-(morpholin-2-ylmethylamino)pyridin-2-ylamino)pyrazine-2-carbonitrile], for which the half-inhibitory concentration (IC50) was no more than 100 nM.

As to `COCC#Cc1cnc(Nc2cnc(C#N)cn2)cc1NC[C@@H]1CNCCO1` [Compound Y-154, (S)-5-(5-(3-Methoxyprop-1-ynyl)-4-(morpholin-2-ylmethylamino)pyridin-2-ylamino)pyrazine-2-carbonitrile], the half-inhibitory concentration (IC50) was no more than 100 nM.

`COC(C)(C)C#Cc1cnc(Nc2cnc(C#N)cn2)cc1NC[C@@H]1CNCCO1` [Compound Y-155, (S)-5-(5-(3-Methoxy-3-methylbut-1-ynyl)-4-(morpholin-2-ylmethylamino)pyridin-2-ylamino)pyrazine-2-carbonitrile] displayed an IC50 of no more than 100 nM.

`COCc1ccc(-c2cnc(Nc3cnc(C#N)cn3)cc2NC[C@H]2CNCCO2)cc1` [Compound Y-156, (R)-5-(5-(4-(Methoxymethyl)phenyl)-4-(morpholin-2-ylmethylamino)pyridin-2-ylamino)pyrazine-2-carbonitrile] had a concentration for half-maximal inhibition (IC50) of no more than 100 nM.

`COCCOc1ccc(-c2cnc(Nc3cnc(C#N)cn3)cc2NC[C@H]2CNCCO2)cc1` [Compound Y-157, (R)-5-(5-(4-(2-Methoxyethoxy)phenyl)-4-(morpholin-2-ylmethylamino)pyridin-2-ylamino)pyrazine-2-carbonitrile]: the IC50 is no more than 100 nM.

In turn, `COCCCc1cnc(Nc2cnc(C#N)cn2)cc1NC[C@H]1CNCCO1` [Compound Y-159, (R)-5-(5-(3-Methoxypropyl)-4-(morpholin-2-ylmethylamino)pyridin-2-ylamino)pyrazine-2-carbonitrile] displayed a half-inhibitory concentration (IC50) of no more than 100 nM.

Regarding `c1cnc(Nc2cc(NCC3CCNCC3)ncn2)cn1` [Compound Z-004, N-(Piperidin-4-ylmethyl)-W-pyrazin-2-ylpyrimidine-4,6-diamine], the half-inhibitory concentration (IC50) lay within 1000 to 10000 nM.

In the case of `NCCCNc1cc(Nc2cnccn2)ncn1` [Compound Z-005, N-(3-Aminopropyl)-A-pyrazin-2-ylpyrimidine-4,6-diamine], the IC50 is 1000 to 10000 nM.

On to `NCCCCNc1cc(Nc2cnccn2)ncn1` [Compound Z-006, N-(4-Aminobutyl)-N′-pyrazin-2-ylpyrimidine-4,6-diamine], for which the IC50 was 1000 to 10000 nM.

As to `N#Cc1cnc(Nc2cc(N(CCN)CC(N)=O)ncn2)cn1` [Compound Z-009, 2-((2-Aminoethyl)(6-(5-cyanopyrazin-2-ylamino)pyrimidin-4-yl)amino)acetamide], the IC50 fell in the range of 1000 to 10000 nM.

In the case of `N#Cc1cnc(Nc2cc(NCCC[C@H](N)C(=O)Nc3ccccc3)ncn2)cn1` [Compound Z-010, (S)-2-Amino-5-(6-(5-cyanopyrazin-2-ylamino)pyrimidin-4-ylamino)-N-phenylpentanamide], the IC50 was ≤ 1000 nM and 100 to 1000 nM.

Turning to `N#Cc1cnc(Nc2cc(NCCC[C@H](N)C(=O)NCc3ccccc3)ncn2)cn1` [Compound Z-011, (S)-2-Amino-N-benzyl-5-(6-(5-cyanopyrazin-2-ylamino)pyrimidin-4-ylamino)pentanamide], the IC50 is ≤ 1000 nM and 100 to 1000 nM.

Take `N#Cc1cnc(Nc2cc(NC3CCNCC3)ncn2)cn1` [Compound Z-012, 5-(6-(Piperidin-4-ylamino)pyrimidin-4-ylamino)pyrazine-2-carbonitrile]: the IC50 is ≤ 1000 nM and 100 to 1000 nM.

With `N#Cc1cnc(Nc2cc(N[C@H]3CCCNC3)ncn2)cn1` [Compound Z-013, (S)-5-(6-(Piperidin-3-ylamino)pyrimidin-4-ylamino)pyrazine-2-carbonitrile], the IC50 fell in the range of 1000 to 10000 nM.

`N#Cc1cnc(Nc2cc(N3CCOC(CN)C3)ncn2)cn1` (centres unmarked) [Compound Z-014, 5-(6-(2-(Aminomethyl)morpholino)pyrimidin-4-ylamino)pyrazine-2-carbonitrile] yielded an IC50 of 1000 to 10000 nM.

Compound `N#Cc1cnc(Nc2cc(N3CCC(C(N)c4ccccc4)CC3)ncn2)cn1` (centres unmarked) [Compound Z-015, 5-(6-(4-(Amino(phenyl)methyl)piperidin-1-yl)pyrimidin-4-ylamino)pyrazine-2-carbonitrile] registered a concentration for half-maximal inhibition (IC50) of 1000 to 10000 nM.

As for `N#Cc1cnc(Nc2cc(NCCCCN)ncn2)cn1` [Compound Z-016, 5-(6-(4-Aminobutylamino)pyrimidin-4-ylamino)pyrazine-2-carbonitrile], the half-inhibitory concentration (IC50) was ≤ 1000 nM and 600 nM and 100 to 1000 nM.

`N#Cc1cnc(Nc2cc(N3CCNCC3)ncn2)cn1` [Compound Z-018, 5-(6-(piperazin-1-yl)pyrimidin-4-ylamino)pyrazine-2-carbonitrile] registered an IC50 of 1000 to 10000 nM.

Consider `N#Cc1cnc(Nc2cc(NCC3CCCNC3)ncn2)cn1` (centres unmarked) [Compound Z-022, 5-(6-(Piperidin-3-ylmethylamino)pyrimidin-4-ylamino)pyrazine-2-carbonitrile], for which the half-maximal inhibitory concentration (IC50) was ≤ 1000 nM and 100 to 1000 nM.

For `N#Cc1cnc(Nc2cc(N[C@H]3CCNC3)ncn2)cn1` [Compound Z-024, (S)-5-(6-(Pyrrolidin-3-ylamino)pyrimidin-4-ylamino)pyrazine-2-carbonitrile], the IC50 was 1000 to 10000 nM.

Take `N#Cc1cnc(Nc2cc(NCCC[C@@H](N)C(=O)Nc3ccccc3)ncn2)cn1` [Compound Z-025, (R)-2-Amino-5-(6-(5-cyanopyrazin-2-ylamino)pyrimidin-4-ylamino)-N-phenylpentanamide]: the half-maximal inhibitory concentration (IC50) is ≤ 1000 nM and 100 to 1000 nM.

`N#Cc1cnc(Nc2cc(NCC[C@H](N)C(=O)Nc3ccccc3)ncn2)cn1` [Compound Z-026, (S)-2-Amino-4-(6-(5-cyanopyrazin-2-ylamino)pyrimidin-4-ylamino)-N-phenylbutanamide]: the half-maximal inhibitory concentration (IC50) was ≤ 1000 nM and 100 to 1000 nM.

Take `CN1C2CCC1CC(Nc1cc(Nc3cnc(C#N)cn3)ncn1)C2` [Compound Z-027, 5-(6-((1R,3s,5S)-8-Methyl-8-azabicyclo[3.2.1]octan-3-ylamino)pyrimidin-4-ylamino)pyrazine-2-carbonitrile]: the half-maximal inhibitory concentration (IC50) is no more than 100 nM.

In turn, `CC1(CNc2cc(Nc3cnc(C#N)cn3)ncn2)CCNCC1` [Compound Z-028, 5-(6-((4-Methylpiperidin-4-yl)methylamino)pyrimidin-4-ylamino)pyrazine-2-carbonitrile] gave a 50% inhibitory concentration (IC50) of 1000 to 10000 nM.

By IC50 is commonly meant the concentration that inhibits the measured activity by half.
